Values quoted from earlier work, collected in patent US20040063806A1, “Antimicrobial polyalphaolefin composition” (priority 2000, published 2004).
Where two headings read alike, the source gives them in different places.

Assays:
[1] = system: Actinomyces bovis; settings: origin A, medium NA
[2] = system: Actinomyces israelii; settings: Actinomyces israelii NCTC 8047, medium NA
[3] = system: Bacillus cereus; settings: origin A, medium NA
[4] = system: Clostridium botulinum; settings: Clostridium botulinum NCTC 3805, medium EA
[5] = system: Clostridium perfringens; settings: Clostridium perfringens NCTC 3110, medium EA
[6] = system: Clostridium sporogenes; settings: origin A, medium EA
[7] = system: Corynebacterium acnes; settings: Corynebacterium acnes* ATCC 6919, medium BHI-A
[8] = system: Corynebacterium diphtherias; settings: Corynebacterium diphtherias NCTC 3984, medium BHI-A
[9] = system: Corynebacterium minutissimum; settings: Corynebacterium minutissimum ATCC 23348, medium BHI-A
[10] = system: Corynebacterium xerosis; settings: Corynebacterium xerosis ATCC 373, medium M-H
[11] = system: Enterococcus faecalis
[12] = system: Enterococcus faecium
[13] = system: Lactobacillus delbrueckii; settings: Lactobacillus delbrueckii ATCC 7830, medium MACA
[14] = system: Lactobacillus fermenti; settings: Lactobacillus fermenti ATCC 707, medium MACA
[15] = system: Lactobacillus rhamnosus; settings: Lactobacillus rhamnosus NCTC 7469, medium MACA
[16] = system: Nocardia asteroides; settings: Nocardia asteroides NCTC 6761, medium BHI-A
[17] = system: Sporosarcina urea; settings: Sporosarcina urea ATCC 6473, medium BHI-A
[18] = system: Staphylococcus aureus
[19] = system: Staphylococcus lactis; settings: Staphylococcus lactis NCTC 8340, medium NA
[20] = system: Staphylococcus saprophyticus; settings: Staphylococcus saprophyticus NCTC 7292, medium NA
[21] = system: Streptococcus agalactiae; settings: Streptococcus agalactiae NCTC 8181, medium BHI-A
[22] = system: Streptococcus heamolyticus A; settings: origin A, medium BHI-A
[23] = system: Streptococcus pneumoniae; settings: Streptococcus pneumoniae ATCC 33400, medium M-H
[24] = system: Aerobacter arogenes; settings: Aerobacter arogenes CITM 413, medium NA
[25] = system: Enterobacter cloacae; settings: Enterobacter cloacae ATCC 13047, medium M-H
[26] = system: Enterobacter sakazakii; settings: Enterobacter sakazakii NCTC 8155, medium NA
[27] = system: Klebsiella pneumoniae
[28] = system: Moraxella lwolffii; settings: origin A, medium NA
[29] = system: Pasteurella pseudotuberculosis; settings: origin C-G, medium NA
[30] = system: Pseudomonas aeruginosa
[31] = system: Pseudomonas fluorescencens; settings: Pseudomonas fluorescencens NCTC 4755, medium NA
[32] = system: Salmonella enteritidis; settings: origin A, medium NA
[33] = system: Salmonella typhimurium; settings: Salmonella typhimurium NCTC 5710, medium NA
[34] = system: Shigella sonnei; settings: Shigella sonnei NCTC 7240, medium NA
[35] = system: Aspergillus fumigatus; settings: Aspergillus fumigatus ATCC 9197, medium SMA
[36] = system: Candida paracrusei; settings: origin A, medium SMA
[37] = system: Trichophyton cutaneum; settings: origin A, medium SMA
[38] = system: Trichophyton mentsgrophytes; settings: Trichophyton mentsgrophytes ATCC 9533, medium SMA

Compound: Oc1cc(Cl)ccc1Oc1ccc(Cl)cc1Cl [IRGAGUARD B 1000, 2,4,4′-trichloro-2′-hydroxydiphenyl ether]
- Microbiostatic effect [1]: 1.0 ppm
- Microbiostatic effect [2]: 1.0 ppm
- Microbiostatic effect [3]: 3.0 ppm
- Microbiostatic effect [4]: 3.0 ppm
- Microbiostatic effect [5]: 10.0 ppm
- Microbiostatic effect [6]: 10.0 ppm
- Microbiostatic effect [7]: 3.0 ppm
- Microbiostatic effect [8]: 3.0 ppm
- Microbiostatic effect [9]: 3.0 ppm
- Microbiostatic effect [10]: 5.0 ppm
- Microbiostatic effect ([11]; Enterococcus faecalis ATCC 6055, medium M-H): 5.0 ppm
- Microbiostatic effect ([11]; Enterococcus faecalis ATCC 29212, medium M-H): 4.0 ppm
- Microbiostatic effect ([11]; Enterococcus faecalis NCTC 12201, medium M-H, Varicomycin resistant): 5.0 ppm
- Microbiostatic effect ([11]; Enterococcus faecalis NCTC 12203, medium M-H, Varicomycin resistant): 5.0 ppm
- Microbiostatic effect ([12]; Enterococcus faecium ATCC 10541, medium BHI-A): 3.0 ppm
- Microbiostatic effect ([12]; Enterococcus faedium ATCC 6057, medium M-H): 4.0 ppm
- Microbiostatic effect ([12]; Enterococcus faedium NCTC 8619, medium BHI-A): 10.0 ppm
- Microbiostatic effect [13]: 33.0 ppm
- Microbiostatic effect [14]: 33.0 ppm
- Microbiostatic effect [15]: 33.0 ppm
- Microbiostatic effect [16]: 3.0 ppm
- Microbiostatic effect [17]: 0.1 ppm
- Microbiostatic effect ([18]; Staphylococcus aureus ATCC 6538, medium NA): 0.01 ppm
- Microbiostatic effect ([18]; Staphylococcus aureus ATCC 9144, medium M-H): 0.05 ppm
- Microbiostatic effect ([18]; Staphylococcus aureus ATCC 13709, medium NA): 0.01 ppm
- Microbiostatic effect ([18]; Staphylococcus aureus ATCC 29213, medium M-H): <0.125 ppm
- Microbiostatic effect ([18]; Staphylococcus aureus NCTC 6571, medium NA): 0.03 ppm
- Microbiostatic effect ([18]; Staphylococcus aureus NCTC 6966, medium NA): 0.1 ppm
- Microbiostatic effect ([18]; Staphylococcus aureus NCTC 10443, medium M-H, Methicillin resistant): 0.01 ppm
- Microbiostatic effect ([18]; Staphylococcus aureus NCTC 10703, medium M-H, Methicillin resistant): 0.01 ppm
- Microbiostatic effect ([18]; Staphylococcus aureus NCTC 11150, medium M-H, Methicillin resistant): 0.02 ppm
- Microbiostatic effect ([18]; Staphylococcus aureus NCTC 11940, medium M-H, Methicillin resistant): 0.01 ppm
- Microbiostatic effect ([18]; Staphylococcus aureus NCTC 12232, medium M-H, Methicillin resistant): 0.01 ppm
- Microbiostatic effect ([18]; Staphylococcus aureus NCTC 12493, medium M-H, Methicillin resistant): 0.01 ppm
- Microbiostatic effect ([18]; Staphylococcus aureus NCTC 12497, medium M-H, Methicillin resistant): 0.01 ppm
- Microbiostatic effect [19]: 3.0 ppm
- Microbiostatic effect [20]: 0.1 ppm
- Microbiostatic effect [21]: 3.0 ppm
- Microbiostatic effect [22]: 3.0 ppm
- Microbiostatic effect [23]: 4.0 ppm
- Microbiostatic effect [24]: 1.0 ppm
- Microbiostatic effect [25]: 0.5 ppm
- Microbiostatic effect [26]: 0.3 ppm
- Microbiostatic effect ([27]; Klebsiella pneumoniae ATCC 4352, medium NA): 0.3 ppm
- Microbiostatic effect ([27]; Klebsiella pneumoniae ATCC 10031, medium M-H): 0.125 ppm
- Microbiostatic effect [28]: 0.1 ppm
- Microbiostatic effect [29]: 10.0 ppm
- Microbiostatic effect ([30]; Pseudomonad aeruginosa ATCC 12055, medium NA): >1000 ppm
- Microbiostatic effect ([30]; Pseudomonas aeruginosa NCTC 8060, medium NA): >1000 ppm
- Microbiostatic effect [31]: >100 ppm
- Microbiostatic effect [32]: 0.1 ppm
- Microbiostatic effect [33]: 0.3 ppm
- Microbiostatic effect [34]: 0.1 ppm
- Microbiostatic effect [35]: 10 ppm
- Microbiostatic effect [36]: 4 ppm
- Microbiostatic effect [37]: 10 ppm
- Microbiostatic effect [38]: 1 ppm
